SMILES strings stand for the structures.

Eight molecules from patent US9346822B2, “Thienopyrimidine compounds and use thereof” (TAKEDA PHARMACEUTICAL COMPANY LIMITED, priority 2003, dated 2016) can be followed below.

In one data set the target is human GnRH receptor (Homo sapiens (Human), UniProt P30968). Description: 125I-leuprorelin binding inhibition, CHO cell membrane fraction containing human GnRH receptor. The settings on record: human GnRH receptor expressed in CHO cell membrane, 25° C., 60 minutes, from Hill plot. The method, then:
To a tube containing 10 μl of a 3×10^−4 M aqueous solution of leuprorelin and 10 μl of 0.01 mg/ml lactoperoxidase was added 10 μl (37 MBq) of a solution of Na^125I. After stirring, 10 μl of 0.001% H2O2 was added, and a reaction was carried out at room temperature for 20 minutes. By adding 700 μl of a 0.05% TFA solution, the reaction was stopped, followed by purification by reversed-phase HPLC. The HPLC conditions used are shown below. ^125I-leuprorelin was eluted at a retention time of 26 to 27 minutes.
Human GnRH receptor-expressing CHO cells (10^9 cells) were suspended in phosphate-buffered saline supplemented with 5 mM EDTA (PBS-EDTA) and centrifuged at 100×g for 5 minutes. […]
The monkey and human membrane fractions prepared in the above (2) and (3) were diluted with the assay buffer to yield a 200 µg/ml dilution, each of which was then dispensed at 188 μl per tube. […] To determine maximum binding quantity, a reaction mixture containing 2 μl of 60% DMSO and 10 μl of 38 nM ^125I-leuprorelin was prepared. […]
Where the membrane fraction of the CHO with monkey and human GnRH receptors expressed was used, the reaction was carried out at 25° C. for 60 minutes. […] After this filtration, the radioactivity of ^125I-leuprorelin remaining on the filter paper was measured with a γ-counter. […]

Chain of human GnRH receptor (P30968 whole entry): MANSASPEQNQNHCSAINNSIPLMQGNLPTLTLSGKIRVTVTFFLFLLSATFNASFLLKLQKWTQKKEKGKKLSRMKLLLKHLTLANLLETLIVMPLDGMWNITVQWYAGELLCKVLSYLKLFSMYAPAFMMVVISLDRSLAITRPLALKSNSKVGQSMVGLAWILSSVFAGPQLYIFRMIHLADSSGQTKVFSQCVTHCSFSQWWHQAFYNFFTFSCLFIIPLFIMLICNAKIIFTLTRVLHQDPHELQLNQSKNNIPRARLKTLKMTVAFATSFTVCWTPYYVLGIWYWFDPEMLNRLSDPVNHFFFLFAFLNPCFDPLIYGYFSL

Consider `CONC(=O)Nc1ccc(-c2sc3c(c2CN[C@H](C)c2ccccc2)c(=O)n(-c2ccccc2)c(=O)n3Cc2c(F)cccc2F)cc1` (hydrate or solvate) [Reference Example 28, N-(4-(5-(((1R)-1-phenylethylamino)methyl)-1-(2,6-difluorobenzyl)-1,2,3,4-tetrahydro-2,4-dioxo-3-phenylthieno[2,3-d]pyrimidin-6-yl)phenyl)-N′-methoxyurea], for which the melting point (as a rule, the temperature of the solid-liquid transition) is 180 to 182 °C.
For `COCCN(C)Cc1c(-c2ccc(NC(=O)NOC)cc2)sc2c1c(=O)n(-c1ccccn1)c(=O)n2Cc1c(F)cccc1F` [Ex. Compd. No. 40, N-(4-(1-(2,6-difluorobenzyl)-5-(((2-methoxyethyl)(methyl)amino)methyl)-2,4-dioxo-3-(2-pyridinyl)-1,2,3,4-tetrahydrothieno[2,3-d]pyrimidin-6-yl)phenyl)-N′-methoxyurea], the IC50 (in general, the midpoint of a concentration-inhibition curve) at human GnRH receptor is 0.0002 µM.
The same measure, in the same setting: then `CCOCCN(C)Cc1c(-c2ccc(NC(=O)NOC)cc2)sc2c1c(=O)n(-c1ccccn1)c(=O)n2Cc1c(F)cccc1F` [Ex. Compd. No. 41, N-(4-(1-(2,6-difluorobenzyl)-5-(((2-ethoxyethyl)(methyl)amino)methyl)-2,4-dioxo-3-(2-pyridinyl)-1,2,3,4-tetrahydrothieno[2,3-d]pyrimidin-6-yl)phenyl)-N′-methoxyurea], with 0.0001 µM.
For the molecule `CONC(=O)Nc1ccc(-c2sc3c(c2CN[C@@H](C)c2ccccc2)c(=O)n(-c2ccccc2)c(=O)n3Cc2c(F)cccc2F)cc1` [Reference Example 29, N-(4-(5-(((1S)-1-phenylethylamino)methyl)-1-(2,6-difluorobenzyl)-1,2,3,4-tetrahydro-2,4-dioxo-3-phenylthieno[2,3-d]pyrimidin-6-yl)phenyl)-N′-methoxyurea], the melting point lay in the range of 182 to 185 °C.
Consider `COCC(c1ccccc1)N(C)Cc1c(-c2ccc(NC(=O)NOC)cc2)sc2c1c(=O)n(-c1ccccc1)c(=O)n2Cc1c(F)cccc1F` (centres unmarked) [Reference Example 32, N-(4-(1-(2,6-difluorobenzyl)-5-((2-methoxy-1-phenylethyl(methyl)amino)methyl)-1,2,3,4-tetrahydro-2,4-dioxo-3-phenylthieno[2,3-d]pyrimidin-6-yl)phenyl)-N′-methoxyurea], for which the melting point is 169 to 172 °C.
`COCC(C)N(C)Cc1c(-c2ccc(NC(=O)NOC)cc2)sc2c1c(=O)n(-c1ccccc1)c(=O)n2Cc1c(F)cccc1F` (centres unmarked) [Reference Example 34, N-(4-(1-(2,6-difluorobenzyl)-5-(((2-methoxy-1-methylethyl)methylamino)methyl)-1,2,3,4-tetrahydro-2,4-dioxo-3-phenylthieno[2,3-d]pyrimidin-6-yl)phenyl)-N′-methoxyurea] came in with a melting point of 154 to 155 °C.
`CONC(=O)Nc1ccc(-c2sc3c(c2CN(C)[C@H](C)c2ccccc2)c(=O)n(-c2ccccn2)c(=O)n3Cc2c(F)cccc2F)cc1` [Reference Example 38, N-(4-(5-((methyl((1R)-1-phenylethyl)amino)methyl)-1-(2,6-difluorobenzyl)-1,2,3,4-tetrahydro-2,4-dioxo-3-pyridin-2-ylthieno[2,3-d]pyrimidin-6-yl)phenyl)-N′-methoxyurea] came in with a melting point of 168 to 170 °C.
`CONC(=O)Nc1ccc(-c2sc3c(c2CN(C)[C@H](C)c2ccccc2)c(=O)n(-c2ccc(F)cn2)c(=O)n3Cc2c(F)cccc2F)cc1` [Reference Example 39, N-(4-(5-((methyl((1R)-1-phenylethyl)amino)methyl)-1-(2,6-difluorobenzyl)-1,2,3,4-tetrahydro-2,4-dioxo-3-(5-fluoropyridin-2-yl)thieno[2,3-d]pyrimidin-6-yl)phenyl)-N′-methoxyurea] registered a melting point of 128 to 130 °C.
